From paper PMC10792626 (Saudi Pharmaceutical Journal : SPJ, 2023)
Values after ≈ are worked out from the molar mass of the structure shown.

Biological target: α-amylase
Assay: In vitro α-amylase inhibition assay
Type: biochemical
Details: phosphate buffer pH 6.8, 37 °C

Compound | IC50 α-amylase [µg/mL]
O=C(/C=C/c1ccc(O)cc1)OC[C@H]1O[C@@H](Oc2c(-c3ccc(O)cc3)oc3cc(O)cc(O)c3c2=O)[C@H](O)[C@@H](O)[C@@H]1O [Compound 2, Tiliroside] | 180.6 ± 2.04 (≈ 304 µM)
O=c1c(O)c(-c2ccc(O)cc2)oc2cc(O)cc(O)c12 [Compound 3, Kaempferol] | 135.2 ± 1.84 (≈ 472 µM)
C[C@@H]1O[C@@H](OC[C@H]2O[C@@H](Oc3c(-c4ccc(O)c(O)c4)oc4cc(O)cc(O)c4c3=O)[C@H](O)[C@@H](O)[C@@H]2O)[C@H](O)[C@H](O)[C@H]1O [Compound 5, Rutin] | 177.2 ± 2.01 (≈ 290 µM)
Quercetin [Compound 4] | 118.4 ± 1.38
